# Laboratory results from patent US20100249123A1, “NOVEL BENZAMIDE DERIVATIVES AS MODULATORS OF THE FOLLICLE STIMULATING HORMONE” (ADDEX PHARMA SA, priority 2007, published 2010).
# Biological target: T1, rat follicle stimulating hormone receptor (rFSHR) (Rattus norvegicus, UniProt P20395)
# T1 construct: expressed in transfected cells
# T1 sequence (P20395 18-692): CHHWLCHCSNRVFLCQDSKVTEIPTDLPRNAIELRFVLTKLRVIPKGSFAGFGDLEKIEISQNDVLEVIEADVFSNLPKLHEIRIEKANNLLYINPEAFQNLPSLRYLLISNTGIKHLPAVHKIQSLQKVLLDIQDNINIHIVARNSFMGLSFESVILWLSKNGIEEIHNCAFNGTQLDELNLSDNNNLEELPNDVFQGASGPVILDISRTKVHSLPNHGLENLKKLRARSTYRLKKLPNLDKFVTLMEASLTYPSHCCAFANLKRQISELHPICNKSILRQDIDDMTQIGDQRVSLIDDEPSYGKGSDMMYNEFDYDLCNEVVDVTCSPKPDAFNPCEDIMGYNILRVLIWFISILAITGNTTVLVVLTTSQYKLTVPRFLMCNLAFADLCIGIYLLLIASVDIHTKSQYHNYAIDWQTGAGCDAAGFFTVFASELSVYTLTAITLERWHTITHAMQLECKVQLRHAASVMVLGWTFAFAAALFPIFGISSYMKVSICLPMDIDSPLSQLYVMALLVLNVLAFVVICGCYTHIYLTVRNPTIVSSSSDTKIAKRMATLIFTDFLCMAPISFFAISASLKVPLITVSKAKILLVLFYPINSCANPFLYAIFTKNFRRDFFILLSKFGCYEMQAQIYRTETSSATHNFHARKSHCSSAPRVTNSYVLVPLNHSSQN
# Assay: Intracellular cAMP measurement (HTRF) assay, antagonism of EC70 of hFSH
# Format: cell-based
# Conditions: HEK293 cells expressing rFSHR, 1 ng/ml hFSH (EC70), read-out: Class (IC50 to antagonise an EC70 of FSH receptors agonist such as hFSH)
# From the text: Intracellular cAMP Measurement Assay
# The Intracellular cAMP measurement assay is a functional cell-based assay used to study GPCR function. This method relies on a Time-Resolved Fluorescence (HTRF) assay to measure the cAMP accumulation upon receptor-mediated Gs protein activation in cells expressing recombinant GPCR or in cells from native tissues. In brief, this method is a competitive immunoassay between native cAMP produced by cells and the cAMP labeled with a fluorescent tag. The endogenously produced cAMP competes with exogenous added d2-labelled cAMP for the cAMP binding site on a Eu3+ cryptate labelled anti-cAMP antibody. The d2-labelled cAMP and the Eu^3+ labelled antibody produces a basal fluroresence via HTRF and therefore an intracellular increase in unlabelled cAMP is detected as decrease in this signal. cAMP is one of the most important intracellular mediators. Its concentration in cells can be increased upon binding of many hormones to their receptors. The most studied pathway consists in the release of α-subunit GTP-binding proteins following ligand-receptor interaction, which in turn activates or inhibits the ATP/cAMP conversion function of adenylate cyclase enzyme. cAMP is then involved in many complex regulatory processes such as protein kinase activation or ion channel gating. This method is widely used to study receptor activation of G protein in cells over-expressing GPCRs or in native cells, including FSH receptors expressing cells (Gabriel et al., Assay Drug Dev. Technol., 1, 291-303, 2003).
# Transfection and cell culture: The cDNA encoding the rat follicle stimulating hormone receptor (rFSHR), (accession number NM_199237, NCBI Nucleotide database browser) was subcloned into an expression vector containing also the hygromycin resistance gene. Transfection of this vector into HEK293 cells with PolyFect reagent (Qiagen) according to supplier's protocol, and hygromycin treatment allowed selection of antibiotic resistant cells which had integrated stably one or more copies of the plasmid. Positive cellular clones expressing rFSHR were identified in a functional assay measuring cAMP production in cells following stimulation by addition of purified human follicle stimulating hormone (hFSH).
# HTRF cAMP assay: On the day of the experiment, cells were detached from the Petri dish and distributed in a low volume, black-walled 384-well plate at a density of 5,000 cells/well in an assay buffer containing 1 mM IBMX to prevent cAMP degradation by cytoplasmic phosphodiesterases. The determination of the cAMP accumulation was performed using an HTRF assay (Trinquet et al., Anal. Biochem., 358, 126-135, 2006). Briefly, cells were incubated for 3 min in the presence of increasing concentrations of negative allosteric modulators (from 1 nM to 60 μM) and then 30 min in the presence of 1 ng/ml of hFSH, an agonist of rat FSH receptor, that has been determined in previous experiments to correspond to the EC70, a concentration that gives 70% of the maximal response of the agonist, and is in accordance with published data (Fox et al., Mol. Endocrin., 15, 378-389, 2001). […] Cells were then lysed by adding the HTRF assay components, the europium cryptate-labeled anti-cAMP antibody, and the XL665-labeled cAMP analog, previously diluted in a HEPES buffer (50 mM, pH 7.0) containing 0.8 M potassium fluoride, 0.2% (w/v) BSA, and 1% (v/v) Triton X-100, a percentage of detergent that ensure complete cell lysis. Assay was then incubated for 1 hr at room temperature, and HTRF signal was measured after excitation at 337 nm, and dual emission at 620 and 665 nm, using a RubyStar fluorimeter (BMG Labtechnologies). Moreover, the fluorescence ratio of an appropriate range of known concentrations of cAMP standards was also included on each assay plate to produce a standard cAMP curve. […]
row,Compound,IC50 [nM]
1,"1H-Pyrrolo[2,3-b]pyridine-5-carboxylic acid {2-[4-(3,4-dimethoxy-benzoylamino)-phenyl]-2-methyl-propyl}-amide [Example 201]",150 to 400
2,"COc1ccc(C(=O)Nc2cccc(C3(CNC(=O)c4nn(C)c5ccccc45)CCCC3)c2)cc1OC [Example 102, 1-Methyl-1H-indazole-3-carboxylic acid{1-[3-(3,4-dimethoxy-benzoylamino)-phenyl]-cyclopentylmethyl}-amide]",≥ 1000
3,"COc1ccc(C(=O)Nc2ccc(C(C)(C)CNC(=O)c3cn(C(C)=O)c4ccccc34)cc2)cc1OC [Example 104, 1-Acetyl-1H-indole-3-carboxylic acid{2-[4-(3,4-dimethoxy-benzoylamino)-phenyl]-2-methyl-propyl}-amide]",400 to 1000
4,"COc1ccc(C(=O)Nc2ccc(C(C)(C)CNC(=O)c3n[nH]c4ccccc34)c(Cl)c2)cc1OC [Example 113, 1H-Indazole-3-carboxylic acid{2-[2-chloro-4-(3,4-dimethoxy-benzoylamino)-phenyl]-2-methyl-propyl}-amide]",150 to 400
5,"COc1ccc(C(=O)Nc2cc(Cl)c(C(C)(C)C#N)c(Cl)c2)cc1OC [Example 120, N-[3,5-Dichloro-4-(cyano-dimethyl-methyl)-phenyl]-3,4-dimethoxy-benzamide]",150 to 400
6,"COc1ccc(C(=O)Nc2ccc(C(C)(C)CNC(=O)c3nn(C)c4ccccc34)c(Cl)c2)cc1OC [Example 121, 1-Methyl-1H-indazole-3-carboxylic acid{2-[2-chloro-4-(3,4-dimethoxy-benzoylamino)-phenyl]-2-methyl-propyl}-amide]",150 to 400
7,"COc1ccc(C(=O)Nc2ccc(Cl)c(C(C)(C)C#N)c2)cc1OC [Example 125, N-[4-Chloro-3-(cyano-dimethyl-methyl)-phenyl]-3,4-dimethoxy-benzamide]",≥ 1000
8,COc1ccc(C(=O)Nc2ccc(C(C)(C)CNC(=O)c3cc(C)[nH]n3)cc2)cc1OC [Example 127],400 to 1000
9,"COc1ccc(C(=O)Nc2ccc(C(C)(C)C#N)c(-c3cccnc3)c2)cc1OC [Example 132, N-[4-(Cyano-dimethyl-methyl)-3-pyridin-3-yl-phenyl]-3,4-dimethoxy-benzamide]",150 to 400
10,COc1ccc(C(=O)Nc2ccc(C(C)(C)CNC(=O)c3ccc4[nH]ccc4c3)cc2)cc1OC [Example 142],150 to 400
11,"COc1ccc(C(=O)Nc2ccc(C(C)(C)C#N)c(-c3ccccn3)c2)cc1OC [Example 183, N-[4-(Cyano-dimethyl-methyl)-3-pyridin-2-yl-phenyl]-3,4-dimethoxy-benzamide]",≥ 1000
12,COc1ccc(C(=O)Nc2ccc(C(C)(C)CNC(=O)c3cnc4ncccn34)cc2)cc1OC [Example 185],400 to 1000
13,COc1ccc(C(=O)Nc2ccc(C(C)(C)CNC(=O)c3cn4cccnc4n3)cc2)cc1OC [Example 186],≥ 1000
14,"COCCn1cc(C(=O)NCC(C)(C)c2ccc(NC(=O)c3ccc(OC)c(OC)c3)cc2)c2cc(F)ccc21 [Example 191, 5-Fluoro-1-(2-methoxy-ethyl)-1H-indole-3-carboxylic acid {2-[4-(3,4-dimethoxy-benzoylamino)-phenyl]-2-methyl-propyl}-amide]",150 to 400
15,"COc1ccc(C(=O)Nc2ccc(C(C)(C)CNC(=O)c3cn(CCCN(C)C)c4ccc(F)cc34)cc2)cc1OC [Example 192, 1-(3-Dimethylamino-propyl)-5-fluoro-1H-indole-3-carboxylic acid {2-[4-(3,4-dimethoxy-benzoylamino)-phenyl]-2-methyl-propyl}-amide]",≥ 1000
16,"COc1ccc(C(=O)Nc2ccc(C(C)(C)CCNC(=O)c3cnc4ccccn34)cc2)cc1OC [Example 194, Imidazo[1,2-a]pyridine-3-carboxylic acid {3-[4-(3,4-dimethoxy-benzoylamino)-phenyl]-3-methyl-butyl}-amide]",150 to 400
17,"COc1ccc(C(=O)Nc2ccc(C(C)(C)CCNC(=O)c3nc4cccnc4[nH]3)cc2)cc1OC [Example 196, 3H-Imidazo[4,5-b]pyridine-2-carboxylic acid {3-[4-(3,4-dimethoxy-benzoylamino)-phenyl]-3-methyl-butyl}-amide]",150 to 400

# Other lines, results leading:
row,IC50 [nM],Compound
1,150 to 400,COc1ccc(C(=O)Nc2ccc(C(C)(C)CNC(=O)c3ccco3)cc2)cc1OC [Example 32]
2,< 150,COc1ccc(C(=O)Nc2ccc(C(C)(C)CNC(=O)c3cnn4ccccc34)cc2)cc1OC [Example 41]
3,150 to 400,COc1ccc(C(=O)Nc2ccc(C(C)(C)CNC(=O)c3ccccn3)cc2)cc1OC [Example 74]
4,150 to 400,"COc1ccc(C(=O)Nc2ccc(C(C)(C)C#N)c(C)c2)cc1OC [Example 95, N-[4-(Cyano-dimethyl-methyl)-3-methyl-phenyl]-3,4-dimethoxy-benzamide]"
5,150 to 400,"COc1ccc(C(=O)Nc2ccc(C(C)(C)C#N)c(C(F)(F)F)c2)cc1OC [Example 99, N-[4-(Cyano-dimethyl-methyl)-3-trifluoromethyl-phenyl]-3,4-dimethoxy-benzamide]"
6,150 to 400,"COc1ccc(C(=O)Nc2ccc(C(C)(C)CNC(=O)c3c[nH]c4ccccc34)cc2)cc1OC [Example 101, 1H-Indole-3-carboxylic acid{2-[4-(3,4-dimethoxy-benzoylamino)-phenyl]-2-methyl-propyl}-amide]"
7,150 to 400,"COc1ccc(C(=O)Nc2ccc(C(C)(C)CNC(=O)c3n[nH]c4ccccc34)c(C)c2)cc1OC [Example 109, 1H-Indazole-3-carboxylic acid{2-[4-(3,4-dimethoxy-benzoylamino)-2-methyl-phenyl]-2-methyl-propyl}-amide]"
8,150 to 400,"COc1ccc(C(=O)Nc2ccc(C(C)(C)CNC(=O)c3nn(C)c4ccccc34)c(C)c2)cc1OC [Example 110, 1-Methyl-1H-indazole-3-carboxylic acid{2-[4-(3,4-dimethoxy-benzoylamino)-2-methyl-phenyl]-2-methyl-propyl}-amide]"
9,< 150,"CCc1cc(NC(=O)c2ccc(OC)c(OC)c2)ccc1C(C)(C)C#N [Example 133, N-[4-(Cyano-dimethyl-methyl)-3-ethyl-phenyl]-3,4-dimethoxy-benzamide]"
10,< 150,"CCc1cc(NC(=O)c2ccc(OC)c(OC)c2)ccc1C(C)(C)CNC(=O)c1cnc2[nH]cnc2c1 [Example 198, 3H-Imidazo[4,5-b]pyridine-6-carboxylic acid {2-[4-(3,4-dimethoxy-benzoylamino)-2-ethyl-phenyl]-2-methyl-propyl}-amide]"
